The record followed here is PMC5234776, “Study of the Antimicrobial Activity of Tilapia Piscidin 3 (TP3) and TP4 and Their Effects on Immune Functions in Hybrid Tilapia (Oreochromis spp.)” (PLoS ONE, 2017).

The test system of data set [1] is V. vulnificus. The experiment in a line: Tilapia survival, peptide injected before V. vulnificus infection (pre-treatment). In kind it is in vivo, tilapia (Oreochromis spp.). The note with it: 7 days. The text has this: We obtained tilapia (Oreochromis spp.) from a commercial aquaculture company. The fish body lengths were 4.0±0.6 cm, and body weights were 3.1±0.3 g. The tilapia were maintained in a 2000 liter indoor aquarium at the Marine Research Station, Ilan, Taiwan. To study the efficacy with which TP3 and TP4 protect tilapia against V. vulnificus, we injected the bacteria into the abdominal cavities (peritoneum) of the tilapia using a syringe (29 Gx1/2, Terumo Medical, Elkton, MD, USA); control tilapia were injected with PBS-buffered saline. For the first trial in each group, we used 15 tilapia: (a) group 1 was injected with V. vulnificus (2×10^5 CFU/fish) only; (b) group 2 was injected with PBS only; and (c) group 3 was injected with bacterial cells (2×10^5 CFU/fish) combined with a mixture containing both TP3 and TP4 peptides (at 0.1, 1, 10, or 20 μg/fish) that had been incubated for 60 minutes at 28°C. Next, at 168 hours after the first injection, the tilapia that survived the first co-treatment were again injected with V. vulnificus (2×10^5 CFU/fish). For this second challenge, we chose tilapia with similar body weights and ages that had not been previously treated with V. vulnificus, TP3 or TP4 for the V. vulnificus-only group (control group), and we recorded the survival rate over seven days. For the third trial, each group contained 15 tilapia, each of which was injected with 20, 30, or 40 μg of TP3 or TP4 followed by V. vulnificus (2×10^5 CFU/fish) after 0.5, 1, or 2 hours. The survival rate was recorded after seven days. For the fourth trial, each group contained 15 tilapia, each of which was first injected with V. vulnificus (2×10^5 CFU/fish) and then with 20, 30, or 40 μg of TP3 or TP4 after 0.5, 1, or 2 hours; the survival rate was recorded over seven days. Each experimental group consisted of 15 fish per treatment and three replicates (triplicate groups of 15 fish per treatment). We performed multiple group comparisons by analysis of variance (ANOVA) using SPSS software, and pairwise comparisons of groups were performed using a t-test. Significant differences were indicated as *P<0.05 and **P<0.01.

In data set [2] the test system is tilapia. The data set is described as follows: Toxicity of peptide alone, tilapia survival. The class given is in vivo, tilapia (Oreochromis spp.). The note with it: abdominal cavity, no infection, seven days (S2 Fig). Here is the method: The antimicrobial activities of TP3 and TP4 peptides were analyzed in tilapia infected with lethal amounts of bacteria. Different amounts of V. vulnificus were injected into the abdominal cavities of the fish, and survival rates were recorded as cumulative percentages (S1 Fig). To determine whether TP3 and TP4 had any toxic effects on the tilapia, we injected different doses of TP3 and TP4 (0.1, 1, 10, 20, 30, 40, or 50 μg/fish) into the abdominal cavity and recorded the cumulative survival percentage of the fish (S2 Fig). We also co-treated tilapia with different doses (0.1, 1, 10, 20 μg/fish) of TP3 or TP4 combined with 2x10^4 CFU of V. vulnificus to evaluate tilapia survival following treatment. […] After 14, 21, or 28 days following the first co-treatment with TP3, the tilapia that survived in the 20 μg/fish TP3 experimental group were injected with a second dose of 2x10^4 CFU of V. vulnificus, and the survival rates were measured for another seven days. […] In the co-treatment experiments, at 14, 21, or 28 days after the first co-treatment with TP4, the surviving tilapia in the 20 μg/fish TP4 experimental group received a second injection of 2x10^4 CFU of V. vulnificus, and the survival rates were measured for another seven days.
Supplementary file pone.0169678.s002.pdf: S2 Fig Determination of tilapia survival rates seven days after injection with different concentrations of TP3 or TP4. (a) The survival rates of tilapia injected with TP3 at a dose of 0.1 μg/fish, 1 μg/fish, or 10 μg/fish. (b) The percentage of tilapia surviving after injection with TP4 at 0.1 μg/fish, 1 μg/fish, or 10 μg/fish. (c) The percentage of tilapia surviving after injection with TP3 at 20 μg/fish, 30 μg/fish, 40 μg/fish, or 50 μg/fish. (d) The percentage of tilapia surviving after injection with TP4 at 20 μg/fish, 30 μg/fish, 40 μg/fish, or 50 μg/fish. The control group (control) was injected with PBS alone. (PDF) Click here for additional data file.

Data set [3] is described as follows: in vivo. Also noted: species or system tilapia (Oreochromis hybrids, Tilapia spp.). The note with it: iv, 0.2 mg/kg. On the procedure:
The peptide half-life of TP3 and TP4 were investigated in male tilapia (Oreochromis hybrids, Tilapia spp., with a mean body length of 32.33±1.5 cm and a mean body weight of 1117±78.2 g) after intravenous administration of a single dose of 0.2 mg/kg of peptide. The TP3 and TP4 concentrations in serum samples were determined at 10, 30, 60, 120, 180, 240, 300, and 360 minutes for TP3 and at 10, 60, 120, 180, 240, 300, and 360 minutes after dosing for TP4. At each sample collection time point, we anesthetized three fish and collected their blood. The blood was centrifuged to obtain fish serum, which was assessed by liquid chromatography-mass spectrometry/mass spectrometry (LC-MS/MS) at Mission Biotech (Taipei, Taiwan).

For data set [4], the system named is V. vulnificus. In kind it is cell-based, Vibrio vulnificus. Here is the method: To understand the effects of pH on TP3 or TP4, the reagents were dissolved in ddH2O, 1 M HCl or 1 M NaOH to obtain solutions with different pH values. For the temperature-dependent functional study, the TP3 or TP4 was added to a solution in a water bath (Basic life, model BL3002, Taiwan) and incubated for 60 minutes at different temperatures (40, 60, 80, or 100°C). To evaluate the effects of TP3 and TP4 on pepsin and trypsin function, each peptide was incubated for 10 or 30 minutes with different concentrations of pepsin or trypsin (0.1, 1, or 10 μg/ml), and we determined the MIC values after incubating these solutions with cells at 28°C for 720 minutes, according to a previously described MIC experimental protocol.

The mark [5] stands for this setting: peptide 20 μg/fish 0.5 hours before V. vulnificus.
Where [6] appears, read: peptide 20 μg/fish 1 hour before V. vulnificus.
Where [7] appears, read: peptide 20 μg/fish 2 hours before V. vulnificus.
The mark [8] stands for this setting: peptide 30 μg/fish 0.5 hours before V. vulnificus.
The mark [9] stands for this setting: peptide 30 μg/fish 1 hour before V. vulnificus.
The mark [10] stands for this setting: peptide 30 μg/fish 2 hours before V. vulnificus.
Setting [11] is: peptide 40 μg/fish 0.5 hours before V. vulnificus.
Setting [12] is: peptide 40 μg/fish 1 hour before V. vulnificus.
Where [13] appears, read: peptide 40 μg/fish 2 hours before V. vulnificus.

Like-named read-outs stand apart in the source and are kept apart here. Peptide text beside a SMILES is read from it.

`CC[C@H](C)[C@H](NC(=O)[C@H](CC(C)C)NC(=O)[C@H](CO)NC(=O)[C@H](Cc1c[nH]cn1)NC(=O)[C@@H](NC(=O)[C@H](Cc1c[nH]cn1)NC(=O)[C@H](CCCCN)NC(=O)CNC(=O)[C@@H](NC(=O)[C@H](CO)NC(=O)[C@H](Cc1ccccc1)NC(=O)[C@H](CC(C)C)NC(=O)CNC(=O)CNC(=O)[C@@H](NC(=O)[C@@H](NC(=O)[C@H](Cc1c[nH]cn1)NC(=O)[C@H](Cc1c[nH]cn1)NC(=O)[C@@H](NC(=O)[C@@H](N)Cc1ccccc1)[C@@H](C)CC)[C@@H](C)CC)[C@@H](C)CC)C(C)C)[C@@H](C)CC)C(=O)N[C@@H](Cc1c[nH]cn1)C(=O)NCC(=O)N[C@@H](Cc1c[nH]cn1)C(=O)O` [TP3, tilapia piscidin 3] (H-FIHHIIGGLFSVGKHIHSLIHGH-OH): the survival rate in data set [1] (setting [5]) turned out to be 13.3%; in data set [1] (setting [6]), 2.2%; in data set [1] (setting [7]), 2.2%; in data set [1] (setting [8]), 28.9%; in data set [1] (setting [9]), 11.8%; in data set [1] (setting [10]), 8.9%. In addition, the survival rate in data set [1] (setting [11]) was 26.7%; in data set [1] (setting [12]) it was 8.9%; in data set [1] (setting [13]), 4.4%. For the same compound, the “percent survival after injection of peptide only” value in data set [2] (20 μg/fish) is 86.7%; in data set [2] (30 μg/fish), 73.3%; in data set [2] (40 μg/fish), 66.7%; in data set [2] (50 μg/fish), 56.7%. For the same compound, the “half-life of the injected peptide in tilapia serum” value in data set [3] was 2 to 3 h.
For `CC[C@H](C)[C@H](NC(=O)[C@H](C)NC(=O)[C@H](CCCCN)NC(=O)CNC(=O)[C@H](C)NC(=O)[C@H](CO)NC(=O)[C@H](Cc1ccccc1)NC(=O)[C@H](CC(C)C)NC(=O)CNC(=O)CNC(=O)[C@@H](NC(=O)[C@@H](NC(=O)[C@H](Cc1c[nH]cn1)NC(=O)[C@H](Cc1c[nH]cn1)NC(=O)[C@@H](NC(=O)[C@@H](N)Cc1ccccc1)[C@@H](C)CC)[C@@H](C)CC)[C@@H](C)CC)C(=O)N[C@@H](Cc1c[nH]cn1)C(=O)N[C@@H](CCCNC(=N)N)C(=O)N[C@@H](CC(C)C)C(=O)N[C@H](C(=O)N[C@@H](CCCNC(=N)N)C(=O)N[C@@H](CCCNC(=N)N)C(=O)N[C@@H](CCCNC(=N)N)C(=O)N[C@@H](CCCNC(=N)N)C(=O)N[C@@H](CCCNC(=N)N)C(=O)O)[C@@H](C)CC` [TP4, tilapia piscidin 4] (H-FIHHIIGGLFSAGKAIHRLIRRRRR-OH), the survival rate in data set [1] (setting [5]) worked out at 37.8%; in data set [1] (setting [6]), 4.4%; in data set [1] (setting [7]), 0%; in data set [1] (setting [8]) it was 31.1%; in data set [1] (setting [9]), 20%; in data set [1] (setting [10]), 2.2%. Moreover, the figures for the survival rate in data set [1] (setting [11]), in data set [1] (setting [12]) and in data set [1] (setting [13]) were 11.1%, 4.4% and 4.4%, respectively. Moreover, the “decrease of antimicrobial activity” value in data set [4] (pepsin 0.1 μg/ml, 30 minutes) was “eight-fold”; in data set [4] (pepsin 1 μg/ml, 10 minutes), “two-fold”; in data set [4] (trypsin 1 μg/ml, 10 minutes), “two-fold”; in data set [4] (trypsin 1 μg/ml, 30 minutes), “four-fold”; in data set [4] (trypsin 10 μg/ml, 10 minutes) it was “eight-fold”.
